# Where “and” joins values, the source holds several entries; their conditions need not be identical. Equal entries are not always repeated.
# Key:
# Format in all cases: functional, Homo sapiens
# U2OS [1] = assay: (§1) Here: values are normalized to the negative (DMSO; defined as 0% autophagy induction) and positive (250nM Torin1; mTOR inhibitor; defined as maximal inducer of autophagy = 100%) control compounds and represented as % of autophagy induction. […] The impact of autophagy induction on cells is complex and depends on the affected target. As such, the magnitude of a phenotype may not be equally mirrored in the %-value of autophagy induction and vice versa. The dynamics of the induction may indicate the mode of activation: e.g. activation via phosphorylation or a signaling cascade may occur fast, while activation via transcription factors may take considerably longer. […] Of note, treatment concentrations may be sub-optimal for specific compounds, leading to false negative annotations.; conditions: Culturing Media DMEM, 1 % Penicillin/Streptomycin, 10% Fetal bovin serum Add-On: No, Screening Media Control DMEM, Screening Media Samples DMEM
# TERT-RPE1 = assay: as §1; conditions: Culturing Media DMEM/F12 (1:1), 1 % Penicillin/Streptomycin, 10% Fetal bovin serum Add-On: No, Screening Media Control DMEM/F12 (1:1), Screening Media Samples DMEM/F12 (1:1)
# U2OS [2] = assay: as §1; conditions: Culturing Media DMEM, 1 % Penicillin/Streptomycin, 10% Fetal bovin serum Add-On: No, Screening Media Control DMEM, Screening Media Samples DMEM; remark: listed apart in the source
# [3] = Compound Concentration 0.5 uM, Timepoint 12 hours
# [4] = Compound Concentration 0.5 uM, Timepoint 24 hours
# [5] = Compound Concentration 0.5 uM, Timepoint 36 hours
# [6] = Compound Concentration 0.5 uM, Timepoint 60 hours
# [7] = Compound Concentration 2 uM, Timepoint 12 hours
# [8] = Compound Concentration 2 uM, Timepoint 24 hours
# [9] = Compound Concentration 2 uM, Timepoint 36 hours
# [10] = Compound Concentration 2 uM, Timepoint 60 hours
# [11] = Compound Concentration 10 uM, Timepoint 12 hours
# [12] = Compound Concentration 10 uM, Timepoint 24 hours
# [13] = Compound Concentration 10 uM, Timepoint 36 hours
# [14] = Compound Concentration 10 uM, Timepoint 60 hours
# [15] = Compound Concentration 0.5 uM, Timepoint 12 hours, 12 h, 0.5 µM
# [16] = Compound Concentration 0.5 uM, Timepoint 24 hours, 24 h, 0.5 µM
# [17] = Compound Concentration 0.5 uM, Timepoint 36 hours, 36 h, 0.5 µM
# [18] = Compound Concentration 0.5 uM, Timepoint 60 hours, 60 h, 0.5 µM
# [19] = Compound Concentration 2 uM, Timepoint 12 hours, 12 h, 2 µM
# [20] = Compound Concentration 2 uM, Timepoint 24 hours, 24 h, 2 µM
# [21] = Compound Concentration 2 uM, Timepoint 36 hours, 36 h, 2 µM
# [22] = Compound Concentration 2 uM, Timepoint 60 hours, 60 h, 2 µM
# [23] = Compound Concentration 10 uM, Timepoint 12 hours, 12 h, 10 µM
# [24] = Compound Concentration 10 uM, Timepoint 24 hours, 24 h, 10 µM
# [25] = Compound Concentration 10 uM, Timepoint 36 hours, 36 h, 10 µM
Structure (SMILES),autophagy induction (U2OS [1]; [3]) [%],autophagy induction (U2OS [1]; [4]) [%],autophagy induction (U2OS [1]; [5]) [%],autophagy induction (U2OS [1]; [6]) [%],autophagy induction (U2OS [1]; [7]) [%],autophagy induction (U2OS [1]; [8]) [%],autophagy induction (U2OS [1]; [9]) [%],autophagy induction (U2OS [1]; [10]) [%],autophagy induction (U2OS [1]; [11]) [%],autophagy induction (U2OS [1]; [12]) [%],autophagy induction (U2OS [1]; [13]) [%],autophagy induction (U2OS [1]; [14]) [%],autophagy induction (TERT-RPE1; [15]),autophagy induction (TERT-RPE1; [16]),autophagy induction (TERT-RPE1; [17]),autophagy induction (TERT-RPE1; [18]),autophagy induction (TERT-RPE1; [19]),autophagy induction (TERT-RPE1; [20]),autophagy induction (TERT-RPE1; [21]),autophagy induction (TERT-RPE1; [22]),further results
FC(F)(F)c1cccc(-c2noc(-c3cc(-c4ccccc4)c(C(F)(F)F)s3)n2)c1,-1.1495,-3.455,-61.0771,-1.369,-1.566,-3.4743,-60.4788,-1.735,-17.6781,-7.308,-61.2616,-2.196,1.977% and -3.815%,1.344% and -4.458%,0.88% and -7.47%,-0.5412% and -7.068%,8.025% and -0.7273%,4.894% and -1.63%,2.202% and -4.099%,3.847% and -8.453%,autophagy induction (TERT-RPE1; [23]): -16.4913% and 2.616%; autophagy induction (TERT-RPE1; [24]): -1.867% and 1.296%; autophagy induction (TERT-RPE1; [25]): 1.745% and 2.594%; autophagy induction (U2OS [2]; [3]): 9.021%; autophagy induction (U2OS [2]; [4]): 3.382%; autophagy induction (U2OS [2]; [5]): -0.06707%; autophagy induction (U2OS [2]; [6]): -12.3398%; autophagy induction (U2OS [2]; [7]): 0.8817%; autophagy induction (U2OS [2]; [8]): -10.2337%; autophagy induction (U2OS [2]; [9]): -8.601%; autophagy induction (U2OS [2]; [10]): -22.9781%; autophagy induction (U2OS [2]; [11]): -28.6388%; autophagy induction (U2OS [2]; [12]): -12.6195%; autophagy induction (U2OS [2]; [13]): -3.849%; autophagy induction (U2OS [2]; [14]): -3.37%
CCCCC#Cc1nc(NC)c2ncn([C@@H]3O[C@H](CO)[C@@H](O)[C@H]3O)c2n1,7.971,2.814,-58.1103,-0.9818,3.199,-2.198,-60.437,-1.323,0.2414,-3.3271,-60.2602,-0.5763,-2.336% and -0.4442%,-5.778% and -2.388%,-6.915% and -5.4%,-6.339% and -4.703%,2.252% and 1.572%,3.405% and -0.3092%,0.8288% and 0.6571%,0.7882% and 0.00413%,"autophagy induction (TERT-RPE1; [23]): 9.462% and -4.43%; autophagy induction (TERT-RPE1; [24]): 9.8196% and -3.782%; autophagy induction (TERT-RPE1; [25]): 10.3694% and -2.886%; autophagy induction (TERT-RPE1; Compound Concentration 10 uM, Timepoint 60 hours, 60 h, 10 µM): 10.0597% and -2.862%; autophagy induction (U2OS [2]; [3]): 1.872%; autophagy induction (U2OS [2]; [4]): -1.476%; autophagy induction (U2OS [2]; [5]): -3.077%; autophagy induction (U2OS [2]; [6]): -6.595%; autophagy induction (U2OS [2]; [7]): -4.8354%; autophagy induction (U2OS [2]; [8]): -5.442%; autophagy induction (U2OS [2]; [9]): -4.18%; autophagy induction (U2OS [2]; [10]): -14.3215%; autophagy induction (U2OS [2]; [11]): -0.5241%; autophagy induction (U2OS [2]; [12]): -0.2798%; autophagy induction (U2OS [2]; [13]): -5.149%; autophagy induction (U2OS [2]; [14]): -3.023%"
